Laboratory results taken from patent publication US10231952B2, “Use of arginine vasopressin receptor antagonists for the treatment of prostate cancer” (UNIVERSITY OF MIAMI, priority 2014, dated 2019).
“Also recorded” adds a separate entry of the source.

How the values were obtained:
ERK phosphorylation = test: Total and phosphoERK after AVP stimulation of 22Rv1 with AVPR1a antagonist pretreatment (FIG. 18); assay type: cell-based, human; details: 10 nM AVP; for block of AVP-stimulated phosphoERK: antagonist pretreatment
Method: Total and phosphoERK levels were assessed following stimulation of 22Rv1 with 10 nM AVP for 25 minutes and pretreatment with AVPR1a antagonist (or vehicle control).

RWPE1 cells [1] = test: AVP effect on normal prostate epithelial cell proliferation; assay type: cell-based, human
Method: (§1) FIG. 9A-9D. […] (A) 22Rv1, (B) CWR-R1, (C) PC3, or (D) RWPE-1 cells were plated at 10,000 cells/well in 24 well dishes and then treated with vehicle or arginine vasopressin (AVP) at the indicated concentrations the following day. Media were changed every day. Cells were harvested six days post treatment. Data represent four experiments performed in triplicate and are plotted as fold (treatment/vehicle)±SEM. Significance was determined using a Student's t-test comparing to vehicle controls (**, p<0.01).
(§2) The effect of arginine vasopressin on the proliferation of a castration-resistant prostate cancer cell line (i.e., 22Rv1) was evaluated. Briefly, 22RV1 cells were treated with 1 nM, 10 nM or 1 μM arginine vasopressin (AVP) for six days followed by live cell counting.

ERK1/2 phosphorylation = test: Phospho-ERK1/2 immunoblot, AVP plus/minus Relcovaptan (FIG. 10); assay type: cell-based, human; details: 22Rv1 or CWR-R1, 25 min
Excerpt: FIG. 10. […] Lysates were immunoblotted for phospho-ERK1/2 and total ERK1/2.

22Rv1 cells [2] = test: AVP treatment of 22Rv1 cells, live cell counting (Example 9); assay type: cell-based, human; details: 1 nM, 10 nM or 1 μM AVP, six days
Method: as §2

22Rv1, CWR-R1, PC3 cells = test: AVP stimulation of castration resistant prostate cancer cell proliferation (FIG. 9); assay type: cell-based, human; details: 1 nM AVP; six days
Method: as §1

[3] = test system: AVP type V1a and V2 receptors; details: cited from earlier work
PC3 cells [4] = test: SR49059 treatment, cell number and trypan blue cell death, PC3; assay type: cell-based, human; details: low nanomolar concentrations, five days
Method: (§3) FIGS. 7A-7I. Pharmacologic blockade of AVPR1a decreases human prostate cancer cell but not normal prostate epithelial cell proliferation and selectively kills human prostate cancer cells. (A) 22Rv1, (B) CWR-R1, (C) PC3, and (D) RWPE-1 cells were treated with vehicle or SR49059 at the indicated concentrations and harvested five days post treatment. A representative experiment (of four) was performed in triplicate and data are plotted as cell number (thousands)±SD. Significance was determined using a Student's t-test comparing to vehicle controls (**, p<0.01; ***, p<0.001). (E) 22Rv1, (F) CWR-R1, (G) PC3 or (H) RWPE-1 cells were plated and grown as described above. Adherent and floating cells were harvested and cells that stained with trypan blue or that excluded stain were counted. A representative experiment (of four) was performed in triplicate. Significance was determined using a Student's t-test comparing to vehicle controls (**, p<0.01; ***, p<0.001). (I) Lysates from cells in (A)-(D) were immunoblotted with antibodies that recognize cleaved PARP and actin.

RWPE1 cells [5] = test: SR49059 treatment, cell number and trypan blue cell death, RWPE-1 normal prostate epithelial cells; assay type: cell-based, human
Method: as §3

LNCaP cells = test: Relcovaptan treatment of androgen dependent LNCaP cells (data not shown); assay type: cell-based, human
CWR-R1 cells [6] = test: SR49059 treatment, cell number and trypan blue cell death, CWR-R1; assay type: cell-based, human; details: low nanomolar concentrations, five days
Method: as §3

22Rv1 xenografts = test: Pilot 22Rv1 xenograft in castrated nude mice, Relcovaptan IP; assay type: in vivo; details: 2.5 mg/kg IP, 5 times per week
Method: FIG. 8. […] 22RV1 cells (2×106) resuspended in BD Matrigel were injected into both hind flanks of castrated nude mice (n=8). […] Top graph, once palpable, tumor size was measured five days per week. Significance was determined using a Student's t-test comparing to vehicle controls (* p<0.05). Lower graph, mice were weighed five days per week.

22Rv1 cells [7] = test: SR49059 treatment, cell number and trypan blue cell death, 22Rv1; assay type: cell-based, human; details: low nanomolar concentrations, five days
Method: as §3

cleaved PARP = test: Immunoblot for cleaved PARP after Relcovaptan treatment; assay type: cell-based, human
Method: as §3

[8] = test system: 22Rv1, VCaP and RWPE1 cells; test: Relcovaptan on prostate cancer cell growth / anchorage independent growth (Example 10); assay type: cell-based, human
Method: The effect of an AVPR1a antagonist on the anchorage independent growth of a castration-resistant prostate cancer cell line (i.e., 22Rv1) was evaluated.

VCaP xenografts = test: Castration resistant VCaP xenografts in SCID mice, oral Relcovaptan; assay type: in vivo; details: 50 mg/kg daily oral gavage, 14 days
Method: Subcutaneous VCaP xenografts (bilateral) were established in SCID mice. Mice were castrated when tumors reached 250-300 mm^3. […] Circulating prostate specific antigen (PSA) was measured by ELISA in mice prior to tumor xenografting (baseline), at the time of castration (pre-treatment) and at the time of sacrifice (post-treatment).

[9] = test system: cleaved PARP, Cyclin A, p-RB; test: Immunoblot of apoptosis and G1/S cell-cycle markers after AVPR1a depletion; assay type: cell-based, human
Method: (§4) FIGS. 4A-4E. Depletion of AVPR1a promotes death of aggressive prostate cancer cells. (A) 22Rv1, (B) CWR-R1, (C) PC3 or (D) RWPE-1 cells stably expressing either plk0.1-shGFP or -shAVPR1a were plated and grown as in FIG. 3. Adherent and floating cells were harvested and cells that stained with trypan blue or that excluded stain were counted. Data represent three independent experiments performed in triplicate. Significance was determined using a Student's t-test comparing to shGFP controls (***, p<0.001). (E) Cell lysates were immunoblotted with antibodies that recognize cleaved PARP, cyclin A, and actin.
(§5) This finding is significant as AR splice variants are a proposed mechanism of resistance to drugs that target full length AR including the newer agents, abiraterone and enzalutamide (6,7). Thus, targeting AVPR1a may be a strategy to overcome therapeutic resistance to these next generation drugs.
Next, Western-blot analysis was performed in PC3, 22Rv1 and LNCaP Abl (CRPC) and RWPE1 (non-tumorigenic prostate epithelial cells) to examine G1/S cell-cycle markers: Cyclin A, p-RB or P27.

22Rv1 cells [10] = test: shAVPR1a depletion, growth curves and trypan blue cell death, 22Rv1; assay type: cell-based, human; details: 22Rv1 stably expressing shAVPR1a vs shGFP
Excerpt: (§6) FIGS. 3A-3D. Depletion of AVPR1a decreases aggressive prostate cancer cell proliferation. […] Live cells (trypan blue exclusion) were counted at the indicated times (hr). Significant differences (p<0.05) in proliferation between shGFP and shAVPR1a-transduced cells occurred by 48-72 hr in CRPC (A-C) but not in normal prostate epithelial cells, RWPE-1 (D). Lower panels quantify AVPR1a mRNA depletion by shRNA in each cell line.
as §4

[11] = test system: androgen dependent cells, LNCaP, VCaP and non-tumorigenic prostate epithelial RWPE1 cells; test: shAVPR1a depletion, live cell counting, androgen dependent and normal cells (Example 8); assay type: cell-based, human
Excerpt: (§7) (● shGFP served as a control, SEQ ID NO: 5-[…] A summary of the human prostate cell lines used is provided below in Table 1:
(§8) Data represent three independent experiments performed in triplicate for all cell lines except C4-2, which was done one time in triplicate. […] A second distinct AVPR1a shRNA produced similar results (data not shown).

[12] = test system: CRPC cells (PC3, 22RV1, LNCaP-abl, C4-2, CWR-R1); test: shAVPR1a depletion, live cell counting, CRPC cells (Example 8); assay type: cell-based, human
Excerpt: as §7, §8

[13] = test system: full length AR and AR splice variants; test: Immunoblot of AR after AVPR1a depletion in 22Rv1; assay type: cell-based, human
Excerpt: FIG. 5. AVPR1a knock down results in down-regulation of androgen receptor (AR) and AR splice variant expression in human prostate cancer cells. […] ARdeltaLBD refers to C-terminally truncated AR splice variants such as AR3.
as §5

CWR-R1 cells [14] = test: shAVPR1a depletion, growth curves and trypan blue cell death, CWR-R1; assay type: cell-based, human; details: CWR-R1 stably expressing shAVPR1a vs shGFP
Excerpt: as §6, §4

PC3 cells [15] = test: shAVPR1a depletion, growth curves and trypan blue cell death, PC3; assay type: cell-based, human; details: PC3 stably expressing shAVPR1a vs shGFP
Excerpt: as §6, §4

RWPE1 cells [16] = test: shAVPR1a depletion, growth curves and trypan blue cell death, RWPE1; assay type: cell-based, human; details: RWPE1 stably expressing shAVPR1a vs shGFP
Excerpt: as §6, §4

[17] = test system: 22Rv1, CWR-R1 or PC3 cells; test: Soft agar anchorage independent growth after AVPR1a depletion; assay type: cell-based, human
Method: FIG. 6. AVPR1a is necessary for anchorage independent growth of human prostate cancer cells. The growth in soft agar of 22Rv1, CWR-R1 or PC3 cells stably expressing the indicated shRNA vectors was assessed. Average colony number per plate±SEM is plotted. Data represent two independent experiments performed in triplicate. Significance was determined using a Student's t-test comparing to shGFP controls (***, p<0.001).
as §5
Next, PC3 and 22RV1 cells (CRPC cell lines) in which AVPR1a was depleted (or control shGFP) were cultured in soft agar for three weeks to assess anchorage independent growth (anoikis resistance).

NC(=O)CC[C@@H]1NC(=O)[C@H](Cc2ccccc2)NC(=O)[C@H](Cc2ccc(O)cc2)NC(=O)[C@@H](N)CSSC[C@@H](C(=O)N2CCC[C@H]2C(=O)N[C@@H](CCCN=C(N)N)C(=O)NCC(N)=O)NC(=O)[C@H](CC(N)=O)NC1=O [AVP, arginine vasopressin]
phosphoERK levels (ERK phosphorylation; 25 minutes): increased phosphoERK levels | growth of normal RWPE1 cells (RWPE1 cells [1]; 1 nM AVP, six days): did not stimulate growth | RWPE1 cell proliferation (RWPE1 cells [1]; Example 9, data not shown): did not stimulate RWPE1 cell proliferation | proliferation of RWPE-1 (RWPE1 cells [1]; higher AVP doses): Decreased proliferation | ERK 1/2 phosphorylation (activation) (ERK1/2 phosphorylation; 1 nM AVP): activated ERK 1/2; also recorded: stimulates ERK1/2 phosphorylation | CRPC proliferation (22Rv1 cells [2]): stimulated CRPC proliferation | PC cell proliferation (22Rv1, CWR-R1, PC3 cells): increased PC cell proliferation; also recorded: stimulates castration resistant prostate cancer cell proliferation

Cc1nc2c([nH]1)-c1ccccc1N(C(=O)c1ccc(NC(=O)c3ccccc3-c3ccccc3)cc1)CC2 [Conivaptan]
AVP receptor blockade / selectivity [3]: non-selectively blocks both AVP type V1a and V2 receptors

COc1ccc(S(=O)(=O)N2c3ccc(Cl)cc3[C@](O)(c3ccccc3Cl)[C@@H]2C(=O)N2CCC[C@H]2C(N)=O)cc1OC [Relcovaptan]
block of AVP-stimulated phosphoERK (ERK phosphorylation): blocks ERK signaling | block of AVP-stimulated phosphoERK (ERK phosphorylation; listed as relcovaptan): blocked | inhibition of AVP-stimulated ERK phosphorylation (ERK1/2 phosphorylation; 1 nM AVP plus 1 nM Relcovaptan): inhibited this phosphorylation of ERK | cell death (PC3 cells [4]): promotes cell death; also recorded: promoted CRPC cell death | proliferation (PC3 cells [4]): inhibited proliferation | cell proliferation (RWPE1 cells [5]; 1-10 nM): no effect | cell survival (RWPE1 cells [5]; 1-10 nM): no effect | cell death (RWPE1 cells [5]; doses as high as 10 μM, data not shown): did not promote RWPE1 cell death | cell death (LNCaP cells): approx. 20% | growth (LNCaP cells): inhibited growth inhibition | cell death (CWR-R1 cells [6]): promoted CRPC cell death | proliferation (CWR-R1 cells [6]): inhibited proliferation | adverse effects / toxicity (22Rv1 xenografts): no adverse effects; also recorded: lack of toxicity | tumor growth (22Rv1 xenografts; castrated nude mice): significantly decreased tumor growth at early time points; also recorded: decreases CRPC in vivo growth at early time points | cell death (22Rv1 cells [7]): promoted CRPC cell death | proliferation (22Rv1 cells [7]): inhibited proliferation | cleavage of PARP (cleaved PARP; PC cells): cleavage of PARP | cleavage of PARP (cleaved PARP; normal prostate cells): not normal prostate cells | anchorage independent growth ([8]; 10 μM or 25 μM, six days, FIG. 17): inhibits prostate cancer cell anchorage independent growth | prostate cancer cell proliferation ([8]; FIG. 16): inhibits prostate cancer cell proliferation | body weight vs controls (VCaP xenografts): no loss of weight | growth of castration resistant VCaP xenografts (VCaP xenografts; started seven days after castration): significantly slowed the growth; also recorded: slows growth of VCaP tumors | circulating PSA levels (VCaP xenografts; ELISA): stabilization of PSA levels

shAVPR1a: selective shRNA to AVPR1a, SEQ ID NO: 2 (hairpin printed as SEQ ID NO: 4 in b155) (GGTATGTGGAAGGACTCGCCTAAATCTTC)
PARP cleavage ([9]; AVPR1a-depleted PC cells): observed | cyclin A ([9]; CRPC lines PC3, 22Rv1, LNCaP Abl, Example 8): decreased cyclin A | phosphorylation of the retinoblastoma protein ([9]; PC3 and 22Rv1, Example 8): decreased phosphorylation of the retinoblastoma protein | Cyclin A levels (G1 to S progression) ([9]; PC cells, Example 1): decreased levels of Cyclin A | phosphorylation of the retinoblastoma protein ([9]; RWPE1, Example 8): not RWPE1 cells | PARP cleavage ([9]; RWPE1 cells): not in RWPE1 cells | cell death (22Rv1 cells [10]): increased cell death | cell proliferation (22Rv1 cells [10]): decreased cell proliferation | androgen dependent and normal prostate epithelial cell proliferation [11]: less effect | proliferation of CRPC cells [12]: greatly decreased proliferation | levels of full length AR and AR splice variants [13]: decreased levels of full length AR and AR splice variants | cell death (CWR-R1 cells [14]): increased cell death | cell proliferation (CWR-R1 cells [14]): decreased cell proliferation | cell death (PC3 cells [15]): increased cell death | cell proliferation (PC3 cells [15]): decreased cell proliferation | cell death (RWPE1 cells [16]): not the normal human prostate epithelial RWPE1 cells | anchorage independent growth ([17]; PC3 and 22RV1, soft agar, three weeks, Example 8): significantly reduced anchorage independent growth | anchorage independent growth in soft agar ([17]; three PC cell lines (22Rv1, CWR-R1, PC3)): inhibition of anchorage independent growth in soft agar
